The values below come from article PMC5481773, “Structural insights into the function of ZRANB3 in replication stress response” (Nature Communications, 2017).

In one assay the test system is ZRANB3. The assay can be described thus: ZRANB3 nuclease assay with non-hydrolysable ATP analogues. Particulars: wild-type ZRANB3, fluorescently labelled DNA substrate, native PAGE (Fig. 3d). The class given is biochemical, Human. The text has this:
Figure 3 Characterisation of the ZRANB3 HNH active site. (a) Overlay of the T4 endonuclease VII (yellow) and the ZRANB3 HNH (white) structures. […] (b) Overlay of the T4 endonuclease VII (yellow, labels in italics) and the ZRANB3 HNH (white) structures. Mg^2+ ion in T4 endonuclease is shown as a purple sphere. His1021, Asp1020 and His1045 in the HNH structure overlap with the active site residues of T4 endonuclease VII. (c) Nuclease assay with the wild-type and mutant ZRANB3 proteins in the presence and absence of ATP. Reactions were analysed by native poly-acrylamide gel electrophoresis. Indicated are mobilities of the fluorescently labelled DNA substrate and product. (d) Nuclease assay with non-hydrolysable ATP homologues. Shown are controls with the wild-type ZRANB3 and the ATPase dead K65R mutant in the presence of ATP.
Oligonucleotides used in the nuclease assays (5′-[…]-[…]-3′ and Cy3 5′-end-labelled 5′-[…]-[…]-3′) were incubated in 10 mM Tris-HCl pH 7.5, 50 mM NaCl for 3 min at 94 °C, after which the reactions were allowed to gradually cool down.
The nuclease assays with ZRANB3 was performed essentially as described in ref. [9]. Briefly, reaction mixtures containing the indicated nuclease (200 nM) and fluorescently labelled DNA substrate (10 nM) in 10 μl of reaction buffer (50 mM Tris-HCl; 50 mM NaCl; 5 mM MgCl2; 2 mM ATP (Sigma); pH 7.5) were incubated at 30 °C for 60 min. The reactions were stopped by incubation with 0.1% SDS and 4 mg ml^−1 of proteinase K at 30 °C for 45 min. The reactions were then mixed with sucrose (10% final concentration) and resolved in a 10% polyacrylamide gel in 0.5 × TBE buffer (45 mM Tris-borate, 1 mM EDTA; pH 7.5). The fluorescent DNA species were visualized and quantified using Pharos Mx imager and Quantity one software (BioRad).

Another assay concerns PCNA. The assay can be described thus: PCNA pull-down with biotinylated PIP box and APIM motif peptides. Particulars: biotinylated peptides on streptavidin beads, recombinant PCNA, Western blotting with PCNA antibody (Fig. 4c). In kind it is binding. How it is done:
Figure 4 Stimulation of the ZRANB3 nuclease activity by PCNA. (a) Stimulation of FEN1 and ZRANB3 nuclease activities by PCNA. FEN1 or ZRANB3 nucleases were incubated with the DNA substrate and increasing concentrations of PCNA (0.375, 0.75, 1.5 and 3 μM), in the presence (ZRANB3) or absence (FEN1) of ATP. (b) Domain structure of ZRANB3. Conservation of the PIP box and the APIM motif residues among ZRANB3 proteins are shown in the alignments below. Mutated conserved residues in the PIP box and the APIM motif are indicated by arrows. (c) Interactions of the ZRANB3 PIP box and APIM motif with PCNA. Biotinylated PIP box and APIM motif peptides were bound to streptavidin beads and incubated with recombinant PCNA. The interaction was assayed by Western blotting with PCNA antibody. […] (d) Effect of PCNA (0.375, 0.75, 1.5 and 3 μM) on ZRANB3 nuclease activity assayed with the wild-type ZRANB3 and ZRANB3 PCNA binding mutants (ZRANB3-PIP*, ZRANB3-ΔAPIM and ZRANB3-PIP*ΔAPIM). (e) Quantification of nuclease activities in the presence of increasing concentrations of PCNA. […]
Biotinylated PIP-box and APIM-motif peptides were synthesized by Genscript. […] The beads were subsequently washed with the same buffer to remove unbound PCNA, after which they were boiled in the SDS-PAGE loading buffer, and analysed by anti-PCNA Western blotting (ab18197, 1:1,000 dilution).

With `Nc1ncnc2c1ncn2[C@@H]1O[C@H](CO[P@](=O)(O)O[P@](=O)(O)O[P@@](=O)(O)S)[C@@H](O)[C@H]1O` [ATPγS], the “ZRANB3 endonuclease activity on substitution of ATP by non-hydrolysable ATP analogue” value in the assay on ZRANB3 is on record as “complete loss of activity”. On the same count and under the same terms, next, `Nc1ncnc2c1ncn2[C@@H]1O[C@H](COP(=O)(O)OP(=O)(O)CP(=O)(O)O)[C@@H](O)[C@H]1O` [AMP-PCP]: “complete loss of activity”. The same measure, in the same setting: next, `Nc1ncnc2c1ncn2[C@@H]1O[C@H](COP(=O)(O)OP(=O)(O)NP(=O)(O)O)[C@@H](O)[C@H]1O` [AMP-PNP]: “complete loss of activity”.

Regarding “APIM*: biotinylated ZRANB3 APIM motif peptide with F1075A mutation (pull-down)”, the “Interaction with PCNA (pull-down)” value in the assay on PCNA is given as “abrogated the interaction with PCNA”.
